Results from patent US12281114B2, “NK3 modulators and uses thereof” (Kallyope, Inc., priority 2023, dated 2025).

Tests used:
[1] = test system: acute nitroglycerin (NTG) migraine model in rats; assay: Acute nitroglycerin (NTG) rat migraine model, periorbital von Frey threshold; format: in vivo; conditions: male Sprague Dawley rats, 10 mg/kg NTG i.p., 30 mg/kg test compound, 90 min; 50% periorbital threshold after compound / baseline x 100
Experimental: An acute nitroglycerin (NTG) model was used to assess migraine efficacy in rats (for a review see: Sureda-Gibert, P, Neurobiol Pain. 2022 August-December; 12: 100105). Briefly, male Sprague Dawley rats, 8-weeks old (Charles River Laboratories), were pair-housed in a 12-h light cycle room upon facility arrival and left to acclimate for a minimum of 72 h. Animals were provided standard rodent chow (PicoLab Rodent Diet, 5053) and water ad libitum. Following the acclimation period, rats underwent a single behavioral testing apparatus acclimation. Rats were left to freely move and habituate for a minimum of 20 min. The testing apparatus used was a Multiple Configuration Animal Enclosure (Ugo Basile, 37000-007) placed on a self-standing table with a mesh-perforated bottom.
Periorbital threshold was measured using the up-down method (Chaplan, S. R., et al., J Neurosci Methods, 1994 July; 53(1):55-63), in which von Frey filaments (Ugo Basile, 37450-275) of increasing forces (0.4-15 g) were applied to the periorbital region until an application of a filament evoked a response, typically indicated by a rapid withdrawal response or paw swipe to the periorbital region. Once a response was observed, four more readings were obtained following the first change of direction to determine the withdrawal threshold close to 50%. The 50% threshold was then calculated using the following formula: 50% threshold (g)=10^(X+kd)/10^4, where X=the value, in log units, of the final von Frey filament, k=tabular value for the response pattern, and d=the average increment, in log units, between von Frey filaments.
Following acclimation, a baseline assessment was performed, and rats were then randomized into balanced treatment groups using baseline periorbital threshold measurements. On the day of the experiment, rats (n=12/group) were weighed and administered 10 mg/kg NTG (2 mg/mL in 0.9% saline; Henry Schein, NDC-0517-4810-25) by intraperitoneal injection, immediately followed by their assigned compound treatment of either vehicle (0.25% methyl cellulose, 5% Tween 80, 0.02% sodium dodecyl sulfate (SDS) in Hanks' Buffered Salt Solution with Ca^2+ and Mg^2+), 10 mg/kg sumatriptan as a positive control (2 mg/mL in vehicle; Ambeed, A260899-1g) or 30 mg/kg test compound (10 mg/mL in vehicle).
Approximately 70 min post dosing, animals were placed in the behavioral testing apparatus and allowed to habituate to individual enclosures for a minimum of 20 min prior to von Frey assessment. Von Frey measurements were then recorded at 90 and 120. Upon final measurement, rats were immediately euthanized via CO2 asphyxiation followed by exsanguination. Blood was collected in lithium-heparin serum-separating tubes (BD, 365985) and processed for serum collection. Serum samples were then stored at −80° C.
Migraine efficacy (%) was calculated by dividing the 50% threshold (g) following administration of test compound by the baseline 50% threshold (g) and then multiplying by 100.

human NK3 = molecular target: T1, human NK3 (Homo sapiens, UniProt P29371); assay: FLIPR calcium assay in antagonist mode (NKB EC70 challenge); format: cell-based; conditions: stable cell line expressing human recombinant NK3; antagonist mode vs EC70 of NKB agonist
T1 sequence (P29371 1-465): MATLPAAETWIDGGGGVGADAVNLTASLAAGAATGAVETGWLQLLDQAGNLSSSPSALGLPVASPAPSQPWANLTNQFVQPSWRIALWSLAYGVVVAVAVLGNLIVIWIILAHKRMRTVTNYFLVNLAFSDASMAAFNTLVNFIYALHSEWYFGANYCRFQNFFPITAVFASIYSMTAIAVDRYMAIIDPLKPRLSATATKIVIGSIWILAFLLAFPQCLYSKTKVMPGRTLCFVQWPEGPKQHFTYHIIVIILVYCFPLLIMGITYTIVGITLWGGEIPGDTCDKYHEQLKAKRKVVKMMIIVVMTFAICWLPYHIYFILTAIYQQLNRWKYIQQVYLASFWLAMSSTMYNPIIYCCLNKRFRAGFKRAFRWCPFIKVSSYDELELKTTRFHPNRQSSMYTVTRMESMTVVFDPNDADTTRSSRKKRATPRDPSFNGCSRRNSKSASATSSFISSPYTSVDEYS
In short: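 Recombinant human NK3 stable cells loaded with Calcium 6 dye were given compound, read for 10 min, then challenged with NKB at its predetermined EC70 and read 10 min by FLIPR. The second peak minus baseline was normalized to 10 μM and 0 μM antagonist controls, and fitted for IC50 and efficacy.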

P-glycoprotein (P-gp) = molecular target: T2, P-glycoprotein (P-gp) (Homo sapiens, UniProt P08183); assay: P-gp substrate assessment in MDR1-MDCK II cells; format: in vitro ADME; conditions: dog, MDCK-MDR1, pH 7.4
T2 construct: expressed in transfected cells; host or cells: MDR1-MDCK II
T2 sequence (P08183 whole entry): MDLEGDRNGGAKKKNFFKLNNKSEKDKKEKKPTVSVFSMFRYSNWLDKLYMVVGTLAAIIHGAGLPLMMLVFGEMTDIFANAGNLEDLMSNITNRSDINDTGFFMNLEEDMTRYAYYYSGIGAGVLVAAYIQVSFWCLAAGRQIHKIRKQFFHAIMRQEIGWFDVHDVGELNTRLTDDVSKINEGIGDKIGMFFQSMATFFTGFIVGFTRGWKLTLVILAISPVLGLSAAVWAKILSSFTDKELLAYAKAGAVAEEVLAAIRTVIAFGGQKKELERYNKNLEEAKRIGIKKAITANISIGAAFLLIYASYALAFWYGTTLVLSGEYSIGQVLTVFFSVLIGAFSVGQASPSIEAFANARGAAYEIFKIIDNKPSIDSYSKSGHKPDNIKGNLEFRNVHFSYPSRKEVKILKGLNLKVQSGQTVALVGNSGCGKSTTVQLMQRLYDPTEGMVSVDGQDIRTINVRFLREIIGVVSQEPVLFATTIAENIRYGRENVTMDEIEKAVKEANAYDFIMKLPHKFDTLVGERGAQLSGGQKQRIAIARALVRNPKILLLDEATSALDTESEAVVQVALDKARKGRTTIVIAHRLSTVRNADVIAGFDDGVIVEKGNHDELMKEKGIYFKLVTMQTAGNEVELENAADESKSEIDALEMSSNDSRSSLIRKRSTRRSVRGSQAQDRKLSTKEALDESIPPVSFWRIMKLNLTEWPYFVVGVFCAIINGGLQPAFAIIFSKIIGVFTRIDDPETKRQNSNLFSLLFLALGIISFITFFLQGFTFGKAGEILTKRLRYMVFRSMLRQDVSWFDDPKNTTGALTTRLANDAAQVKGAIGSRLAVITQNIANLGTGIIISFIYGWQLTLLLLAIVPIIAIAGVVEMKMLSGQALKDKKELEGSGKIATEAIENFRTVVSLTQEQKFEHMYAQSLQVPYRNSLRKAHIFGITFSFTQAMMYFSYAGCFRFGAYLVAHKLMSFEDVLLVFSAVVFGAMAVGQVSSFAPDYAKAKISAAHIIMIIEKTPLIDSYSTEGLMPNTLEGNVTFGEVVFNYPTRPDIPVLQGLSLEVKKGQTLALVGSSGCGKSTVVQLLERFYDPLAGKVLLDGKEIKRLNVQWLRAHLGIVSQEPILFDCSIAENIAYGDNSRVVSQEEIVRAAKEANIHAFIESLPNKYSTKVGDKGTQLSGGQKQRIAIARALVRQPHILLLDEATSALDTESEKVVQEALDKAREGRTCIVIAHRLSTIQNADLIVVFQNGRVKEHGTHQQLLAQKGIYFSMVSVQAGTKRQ
Experimental: MDR1-MDCK II from passage 5-35 were used for P-gp substrate assessment studies. Briefly, test compounds were diluted with transport buffer (HBSS with 10 mM HEPES, pH 7.4) from stock solution to a concentration of 2.00 μM (DMSO<1%) and applied to the apical or basolateral side of the cell monolayer. […] Compounds were quantified by LC/MS/MS analysis based on the peak area ratio of analyte/internal standard. The efflux ratio of each compound was determined according to the following equation: Efflux Ratio=Papp (BA)/Papp (AB).

Which results are given for `Cn1cc(-c2cccc(F)c2-c2nc3cc(C(=O)N[C@]45CC[C@](CO)(C4)OC5)ccn3c2Cl)c(F)n1` (single isomer, unassigned; second eluting) [Compound 920, 3-chloro-2-(2-fluoro-6-(3-fluoro-1-methyl-1H-pyrazol-4-yl)phenyl)-N-(1-(hydroxymethyl)-2-oxabicyclo[2.2.1]heptan-4-yl)imidazo[1,2-a]pyridine-7-carboxamide, second eluting enantiomer]?
Efficacy (%) [1]: 100%; IC50 (human NK3): 1.06 nM

Which efflux ratio at 150 min, 2 μM (P-glycoprotein (P-gp)) does the source give for `Cc1nn(C)cc1-c1ccccc1-c1nc2cc(C(=O)N[C@@H]3CO[C@H]4[C@@H]3OC[C@H]4O)ccn2c1Cl` [Compound 7, 3-chloro-2-(2-(1,3-dimethyl-1H-pyrazol-4-yl)phenyl)-N-((3R,3aR,6R,6aR)-6-hydroxyhexahydrofuro[3,2-b]furan-3-yl)imidazo[1,2-a]pyridine-7-carboxamide] here?
Its efflux ratio at 150 min, 2 μM is 32.7.

And the “Efficacy (%)” value [1]?
Its value is 81%.

What about the IC50 (human NK3) of the same compound?
The IC50 was 1.21 nM.

Which “Efficacy (%)” value [1] does the source give for `Cc1nn(C)cc1-c1cc(F)ccc1-c1nc2cc(C(=O)N[C@@H]3CO[C@H]4[C@@H]3OC[C@H]4O)ccn2c1Cl` [Compound 16, 3-chloro-2-(2-(1,3-dimethyl-1H-pyrazol-4-yl)-4-fluorophenyl)-N-((3R,3aR,6R,6aR)-6-hydroxyhexahydrofuro[3,2-b]furan-3-yl)imidazo[1,2-a]pyridine-7-carboxamide] here?
Its value is 82%.

What does the source list for `Cc1nn(C)cc1-c1cc(F)cc(F)c1-c1nc2cc(C(=O)N[C@@H]3CO[C@H]4[C@@H]3OC[C@H]4O)ccn2c1Cl` [Compound 787, 3-chloro-2-(2-(1,3-dimethyl-1H-pyrazol-4-yl)-4,6-difluorophenyl)-N-((3R,3aR,6R,6aR)-6-hydroxyhexahydrofuro[3,2-b]furan-3-yl)imidazo[1,2-a]pyridine-7-carboxamide]?
Efficacy (%) [1]: 70%; IC50 (human NK3): 1.51 nM

Which results are given for `Cn1cc(-c2cccc(F)c2-c2nc3cc(C(=O)NC45COC(C)(C4)C5)ccn3c2C#N)c(F)n1` [Compound 845, 3-cyano-2-(2-fluoro-6-(3-fluoro-1-methyl-1H-pyrazol-4-yl)phenyl)-N-(1-methyl-2-oxabicyclo[2.1.1]hexan-4-yl)imidazo[1,2-a]pyridine-7-carboxamide]?
Efficacy (%) [1]: 92%; IC50 (human NK3): 2.61 nM

How did the “Efficacy (%)” value [1] turn out when `Cn1cc(-c2cccc(F)c2-c2nc3cc(C(=O)N4CCC5(CC4)CC(C)(O)C5)ccn3c2Cl)cn1` [Compound 915, (3-chloro-2-(2-fluoro-6-(1-methyl-1H-pyrazol-4-yl)phenyl)imidazo[1,2-a]pyridin-7-yl)(2-hydroxy-2-methyl-7-azaspiro[3.5]nonan-7-yl)methanone] was run?
The value was 92%.

What about the IC50 (human NK3) of the same compound?
The IC50 was 4.22 nM.

`Cn1cc(-c2cccc(F)c2-c2nc3cc(C(=O)N[C@H]4CC5(C4)C[C@](C)(O)C5)ccn3c2Cl)c(F)n1` (stereo partly drawn) [Compound 928, cis 3-chloro-2-(2-fluoro-6-(3-fluoro-1-methyl-1H-pyrazol-4-yl)phenyl)-N-(6-hydroxy-6-methylspiro[3.3]heptan-2-yl)imidazo[1,2-a]pyridine-7-carboxamide] was tested. Which IC50 (human NK3) did it give?
Its IC50 is 1.56 nM.

Which IC50 (human NK3) does the source give for `Cn1cc(-c2cccc(F)c2-c2nc3cc(C(=O)N[C@H]4CC5(C4)C[C@](C)(O)C5)ccn3c2Cl)c(F)n1` (stereo partly drawn) [Compound 929, trans 3-chloro-2-(2-fluoro-6-(3-fluoro-1-methyl-1H-pyrazol-4-yl)phenyl)-N-(6-hydroxy-6-methylspiro[3.3]heptan-2-yl)imidazo[1,2-a]pyridine-7-carboxamide] here?
Its IC50 is 2.07 nM.

How did the IC50 (human NK3) turn out when `Cn1cc(-c2cccc(F)c2-c2nc3cc(C(=O)N[C@H]4CC[C@](C)(O)CC4)ccn3c2C#N)c(F)n1` [Compound 930, 3-cyano-2-(2-fluoro-6-(3-fluoro-1-methyl-1H-pyrazol-4-yl)phenyl)-N-((1r,4r)-4-hydroxy-4-methylcyclohexyl)imidazo[1,2-a]pyridine-7-carboxamide] was run?
The IC50 was 3 nM.

`Cn1cc(-c2ccc(F)c(F)c2-c2nc3cc(C(=O)NC45COC(C)(C4)C5)ccn3c2C#N)c(F)n1` [Compound 932, 3-cyano-2-(2,3-difluoro-6-(3-fluoro-1-methyl-1H-pyrazol-4-yl)phenyl)-N-(1-methyl-2-oxabicyclo[2.1.1]hexan-4-yl)imidazo[1,2-a]pyridine-7-carboxamide] was tested. Which IC50 (human NK3) did it give?
The IC50 was 6.09 nM.

How did the IC50 (human NK3) turn out when `Cn1cc(-c2ccc(F)c(F)c2-c2nc3cc(C(=O)N4CCOCC4)ccn3c2Cl)c(F)n1` [Compound 933, (3-chloro-2-(2,3-difluoro-6-(3-fluoro-1-methyl-1H-pyrazol-4-yl)phenyl)imidazo[1,2-a]pyridin-7-yl)(morpholino)methanone] was run?
The IC50 was 5.66 nM.

`Cn1cc(-c2cccc(F)c2-c2nc3cc(C(=O)N[C@]45CC[C@](CO)(C4)OC5)ccn3c2Cl)cn1` [Compound 934] was tested. Which IC50 (human NK3) did it give?
The IC50 was 9.69 nM.
